Consider 1 molecule from patent publication US7598234B2, “Steroid derived antibiotics” (Brigham Young University, priority 1998, dated 2009).

SMILES strings stand for the structures.

The melting point is the temperature of the solid-liquid transition. Take `C[C@H](CCCO)C1CC[C@H]2[C@@H]3[C@H](N)C[C@@H]4C[C@H](N)CC[C@]4(C)[C@H]3C[C@H](N)[C@]12C` (stereo partly shown): the melting point was in the range of 200 to 202 °C.
